According to patent US12508266B2 (priority 2010, dated 2025):
Converted amounts (≈) assume the structure as drawn.

Tests used:
[1] = system: Rhinovirus 2 HGP; format: cell-based
[2] = system: Adenovirus type 165089/Chicago; format: cell-based, Adenovirus (AV-1) type 1
[3] = system: Punta Toro A2; format: cell-based, Punta Toro virus
[4] = system: SARS-CoV Urbani; format: cell-based, SARS corona virus
[5] = system: Yellow Fever 17D; format: cell-based, Yellow fever virus
[6] = system: Respiratory Syncytial A2; format: cell-based, Respiratory syncytial virus
[7] = in vitro; conditions: African green monkey
[8] = system: West Nile; format: cell-based, West Nile virus
[9] = system: Rhinovirus 2 HGP; format: cell-based; remark: listed apart in the source
[10] = system: Parainfluenza 3 14702; format: cell-based, Parainfluenza virus type 3
[11] = system: Junin Candid 1; format: cell-based, Junin virus
[12] = system: Measles virus (MV), strain Chicago; experiment: Visual CPE Assay; format: cell-based; conditions: Vero 76 cells
[13] = system: Tacaribe TRVL 11573; format: cell-based
[14] = system: Yellow Fever 17D; format: cell-based, Yellow fever virus; remark: listed apart in the source
[15] = system: Influenza A H3N2 Brisbane/10/2007; format: cell-based
[16] = system: Measles virus (MV), strain Chicago; experiment: Neutral Red Uptake Assay; format: cell-based; conditions: Vero 76 cells
[17] = system: Respiratory Syncytial A2; format: cell-based, Respiratory syncytial virus; remark: listed apart in the source
[18] = in vitro; conditions: human
[19] = system: Parainfluenza 3 14702; format: cell-based, Parainfluenza virus type 3; remark: listed apart in the source
[20] = system: Yellow fever virus (Jimenez strain); set-up: species or system Syrian golden hamsters; conditions: hamster, in vivo
[21] = system: Influenza A H3N2 Brisbane/10/2007; format: cell-based; remark: listed apart in the source
[22] = system: Marburg, Junin Candid 1, Pichinde, Chikungunya 181/25 and Vaccinia NYCBH; experiment: organism not typed; format: cell-based; conditions: read-out: EC50 values, range over several viruses
[23] = in vitro; conditions: human; remark: listed apart in the source
[24] = system: Influenza B Florida; format: cell-based
[25] = system: Influenza A H1N1 CA/04/2009 (Pandemic H1N1); format: cell-based
[26] = system: West Nile; format: cell-based, West Nile virus; remark: listed apart in the source
[27] = in vitro; conditions: human; remark: listed apart in the source
[28] = system: Rift Valley Fever MP-12; format: cell-based, Rift Valley fever virus
[29] = in vitro; conditions: human; remark: listed apart in the source
[30] = system: Influenza B Florida; experiment: microbe, parasite or virus in culture; format: cell-based
[31] = system: Adenovirus type 165089/Chicago; format: cell-based, Adenovirus (AV-1) type 1; remark: listed apart in the source
[32] = system: Punta Toro A2; format: cell-based, Punta Toro virus; remark: listed apart in the source
[33] = system: SARS-CoV Urbani; format: cell-based, SARS corona virus; remark: listed apart in the source
[34] = system: Venezuelan Equine Encephalitis TC83; format: cell-based, Venezuelan equine encephalitis virus
[35] = system: Venezuelan Equine Encephalitis TC83; format: cell-based, Venezuelan equine encephalitis virus; remark: listed apart in the source
[36] = system: Tacaribe TRVL 11573; format: cell-based; remark: listed apart in the source
[37] = system: Pichinde; format: cell-based
[38] = system: Pichinde; format: cell-based; remark: listed apart in the source
[39] = system: Influenza A H5N1 VN/1203/2004 Hybrid (on H1N1 backbone); format: cell-based
[40] = system: H3N2 virus (A/Victoria/3/75); set-up: species or system Balb/C mice; conditions: mouse, in vivo, po
[41] = system: Dengue 2 New Guinea C; format: cell-based, Dengue virus 2
[42] = system: MA-104 cells; conditions: African green monkey
[43] = in vitro; conditions: African green monkey, Visual CPE Assay
[44] = system: Junin Candid 1; format: cell-based, Junin virus; remark: listed apart in the source
[45] = system: Influenza A H5N1 VN/1203/2004 Hybrid (on H1N1 backbone); format: cell-based; remark: listed apart in the source
[46] = system: Rift Valley Fever MP-12; format: cell-based, Rift Valley fever virus; remark: listed apart in the source
[47] = system: Dengue 2 New Guinea C; format: cell-based, Dengue virus 2; remark: listed apart in the source
[48] = system: MA-104 cells; conditions: African green monkey; remark: listed apart in the source
[49] = system: Measles virus (MV), strain Chicago; experiment: Virus Yield Reduction Assay; format: cell-based; conditions: Vero-76 cells, one log 10 drop in virus produced
[50] = system: Influenza A H1N1 CA/04/2009 (Pandemic H1N1); format: cell-based; remark: listed apart in the source

SMILES: Nc1ncnc2c([C@@H]3N[C@H](CO)[C@@H](O)[C@H]3O)c[nH]c12 [Compound 1, (2S,3S,4R,5R)-2-(4-Amino-5H-pyrrolo[3,2-d]pyrimidin-7-yl)-5-(hydroxymethyl) pyrrolidine-3,4-diol]
- SI Visual CPE Assay [1]: >1.8
- SI Neutral Red Uptake Assay [2]: >2.3
- SI Visual CPE Assay [3]: >1.6
- SI Neutral Red Uptake Assay [4]: >6.3
- SI Visual CPE Assay [5]: 43
- SI Visual CPE Assay [6]: 0
- CC50 [7]: 52 µg/mL (≈ 196 µM)
- SI Neutral Red Uptake Assay [8]: 2.8
- SI Neutral Red Uptake Assay [9]: >1.8
- SI Visual CPE Assay [10]: 7.1
- SI Visual CPE Assay [11]: >17
- SI Visual CPE Assay [12]: >180
- SI Visual CPE Assay [13]: 4.2
- SI Neutral Red Uptake Assay [14]: 38
- SI Neutral Red Uptake Assay [15]: 79
- SI Neutral Red Uptake Assay [16]: >71
- SI Neutral Red Uptake Assay [17]: 0
- CC50 [18]: > 100 µg/mL
- SI Neutral Red Uptake Assay [19]: 52
- weight change [20]: weight gain over placebo and ribavirin administered pre-infection
- SI Visual CPE Assay [21]: 140
- EC50 [22]: ≥ 10 µg/mL
- CC50 [23]: > 100 µg/mL
- SI Visual CPE Assay [24]: 290
- SI Visual CPE Assay [25]: 120
- SI Visual CPE Assay [26]: 0
- CC50 [27]: > 100 µg/mL
- SI Neutral Red Uptake Assay [28]: 6.6
- CC50 [29]: > 100 µg/mL
- SI Neutral Red Uptake Assay [30]: 38
- EC50 ([30]; Influenza B virus): 1.8 µg/mL (≈ 6.79 µM)
- SI Visual CPE Assay [31]: >2.6
- SI Neutral Red Uptake Assay [32]: 0
- SI Visual CPE Assay [33]: >7.1
- SI Visual CPE Assay [34]: 2.2
- SI Neutral Red Uptake Assay [35]: 1.2
- SI Neutral Red Uptake Assay [36]: 2
- SI Neutral Red Uptake Assay [37]: 6.7
- SI Visual CPE Assay [38]: >8.2
- SI Visual CPE Assay [39]: >1600
- Mean weight change (grams ± SEM) Day 9 [40]: 0.01 ± 0.27 grams
- SI Visual CPE Assay [41]: 25
- IC50 Neutral Red Uptake Assay [42]: >100 µg/mL
- CC50 [43]: 100 µg/mL (≈ 377 µM)
- SI Neutral Red Uptake Assay [44]: 14
- SI Neutral Red Uptake Assay [45]: 130
- SI Visual CPE Assay [46]: 9.1
- SI Neutral Red Uptake Assay [47]: 26
- IC50 Visual CPE Assay [48]: >100 µg/mL
- EC90 virus yield reduction [49]: 0.37 µg/mL (≈ 1.39 µM)
- SI Neutral Red Uptake Assay [50]: 120
